Measurements published in patent US9708314B2, “Heterocyclic amide compound” (NISSAN CHEMICAL INDUSTRIES, LTD., priority 2013, dated 2017).

Columns and labels:
Type in all cases: in vivo
[1] = tested on: Triticum aestivum; assay: Test Example 4: effect on crop by application to foliage (diluvial soil, plastic box); conditions: Application herbicide amount 320 g/ha; foliage application
Summary of the method: (§1)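 Scores run from 0 (herbicidal ratio ≤5%) to 5 (≥90%, almost fully withered) and were assessed three weeks after foliar spraying. Seedlings had been raised for 14 days at 25-30° C in sterilized diluvial soil before treatment, with the emulsion diluted in water to the stated g/ha dose.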

[2] = tested on: Glycine max; assay: as above; conditions: Application herbicide amount 320 g/ha; foliage application
Summary of the method: as §1

[3] = tested on: Zea mays; assay: as above; conditions: Application herbicide amount 320 g/ha; foliage application
Summary of the method: as §1

[4] = tested on: Brassica campestris L.; assay: as above; conditions: Application herbicide amount 320 g/ha; foliage application
Summary of the method: as §1

[5] = tested on: Beta vulgaris ssp. vulgaris; assay: as above; conditions: Application herbicide amount 320 g/ha; foliage application
Summary of the method: as §1

[6] = tested on: Stellaria media; assay: Test Example 4: herbicidal effect by application to foliage (diluvial soil, plastic box); conditions: Application herbicide amount 320 g/ha; foliage application
Summary of the method: as §1

[7] = tested on: directly sowed Oryza sativa; assay: Test Example 3: effect on crop by application to foliage (Wagner pot, water depth 0.1-0.5 cm); conditions: Nineteenth Table; application to foliage; application herbicide amount 320 g/ha
Summary of the method: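 Foliar spray, 14-day-old plants, emulsion diluted to target g/ha; rated 3 wk post-application, 0–5 scale (0 ≤5%, 5 ≥90% herbicidal ratio). Greenhouse 25–30 °C, alluvial soil.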

[8] = tested on: transplanted Oryza sativa; assay: Test Example 1: effect on crop, application before weed generation in submerged conditions; conditions: Application herbicide amount 320 g/ha; Seventeenth Table
Summary of the method: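 Alluvial soil in Wagner pots flooded to 4 cm water depth; weed seeds sown and 2.5 leaf stage rice seedlings transplanted. Emulsion diluted in water applied to water surface on sowing day at stated g/ha. Greenhouse 25° C. to 30° C.; effects scored 0–5 by herbicidal ratio after three weeks.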

Row | SMILES | e (Triticum aestivum) effect on crop grade [1] | d (Glycine max) effect on crop grade [2] | c (Zea mays) effect on crop grade [3] | g (Brassica campestris L.) effect on crop grade [4] | f (Beta vulgaris ssp. vulgaris) effect on crop grade [5] | P (Stellaria media) herbicidal effect grade [6] | b (effect on crop grade) [7] | a: transplanted Oryza sativa (effect on crop grade) [8]
1 | CN(c1nnc2c(C(=O)Nc3nnco3)ccc(C(F)(F)F)n12)C1CCCCC1 [1-123] | 0 (Herbicidal ratio of 5% or less (almost no effect)) | 3 (Herbicidal ratio of 40% or more and less than 70%) | 0 (Herbicidal ratio of 5% or less (almost no effect)) | 3 (Herbicidal ratio of 40% or more and less than 70%) | 4 (Herbicidal ratio of 70% or more and less than 90%) | 4 (Herbicidal ratio of 70% or more and less than 90%) | 1 (Herbicidal ratio of 5% or more and less than 20%) | 1 (Herbicidal ratio of 5% or more and less than 20%)
2 | CCN(CC)c1nnc2c(C(=O)Nc3nnc(C)o3)ccc(C(F)(F)F)n12 [1-135] | 0 (Herbicidal ratio of 5% or less (almost no effect)) | 3 (Herbicidal ratio of 40% or more and less than 70%) | 0 (Herbicidal ratio of 5% or less (almost no effect)) | 0 (Herbicidal ratio of 5% or less (almost no effect)) | 4 (Herbicidal ratio of 70% or more and less than 90%) | 4 (Herbicidal ratio of 70% or more and less than 90%) | 1 (Herbicidal ratio of 5% or more and less than 20%) | 1 (Herbicidal ratio of 5% or more and less than 20%)
3 | Cc1nnc(NC(=O)c2ccc(C(F)(F)F)n3c(N4CCCC4)nnc23)o1 [1-136] | 0 (Herbicidal ratio of 5% or less (almost no effect)) | 3 (Herbicidal ratio of 40% or more and less than 70%) | 1 (Herbicidal ratio of 5% or more and less than 20%) | 0 (Herbicidal ratio of 5% or less (almost no effect)) | 4 (Herbicidal ratio of 70% or more and less than 90%) | 4 (Herbicidal ratio of 70% or more and less than 90%) | 2 (Herbicidal ratio of 20% or more and less than 40%) | 1 (Herbicidal ratio of 5% or more and less than 20%)
4 | Cc1nnc(NC(=O)c2ccc(C(F)(F)F)n3c(SCC(F)(F)F)nnc23)o1 [1-124] | 0 (Herbicidal ratio of 5% or less (almost no effect)) | 3 (Herbicidal ratio of 40% or more and less than 70%) | 1 (Herbicidal ratio of 5% or more and less than 20%) | 0 (Herbicidal ratio of 5% or less (almost no effect)) | 3 (Herbicidal ratio of 40% or more and less than 70%) | 3 (Herbicidal ratio of 40% or more and less than 70%) | 0 (Herbicidal ratio of 5% or less (almost no effect)) | 0 (Herbicidal ratio of 5% or less (almost no effect))
5 | Cc1nnc(NC(=O)c2ccc(C(F)(F)F)n3c(N(C)C4CCCCC4)nnc23)o1 [1-133] | 0 (Herbicidal ratio of 5% or less (almost no effect)) | 3 (Herbicidal ratio of 40% or more and less than 70%) | 0 (Herbicidal ratio of 5% or less (almost no effect)) | 0 (Herbicidal ratio of 5% or less (almost no effect)) | 3 (Herbicidal ratio of 40% or more and less than 70%) | 4 (Herbicidal ratio of 70% or more and less than 90%) | 0 (Herbicidal ratio of 5% or less (almost no effect)) | 0 (Herbicidal ratio of 5% or less (almost no effect))
6 | CC(C)N(C)c1nnc2c(C(=O)Nc3nnco3)ccc(C(F)(F)F)n12 [1-122] | 2 (Herbicidal ratio of 20% or more and less than 40%) | 5 (Herbicidal ratio of 90% or more (almost completely withered)) | 2 (Herbicidal ratio of 20% or more and less than 40%) | 5 (Herbicidal ratio of 90% or more (almost completely withered)) | 5 (Herbicidal ratio of 90% or more (almost completely withered)) | 5 (Herbicidal ratio of 90% or more (almost completely withered)) | 3 (Herbicidal ratio of 40% or more and less than 70%) | 3 (Herbicidal ratio of 40% or more and less than 70%)
7 | CC(=O)CSc1nnc2c(C(=O)Nc3nnc(C)o3)ccc(C(F)(F)F)n12 [1-125] | 1 (Herbicidal ratio of 5% or more and less than 20%) | 3 (Herbicidal ratio of 40% or more and less than 70%) | 2 (Herbicidal ratio of 20% or more and less than 40%) | 3 (Herbicidal ratio of 40% or more and less than 70%) | 5 (Herbicidal ratio of 90% or more (almost completely withered)) | 4 (Herbicidal ratio of 70% or more and less than 90%) | 1 (Herbicidal ratio of 5% or more and less than 20%) | 0 (Herbicidal ratio of 5% or less (almost no effect))
8 | CCN(CC)c1nnc2c(C(=O)Nc3nnco3)ccc(C(F)(F)F)n12 [1-138] | 1 (Herbicidal ratio of 5% or more and less than 20%) | 3 (Herbicidal ratio of 40% or more and less than 70%) | 0 (Herbicidal ratio of 5% or less (almost no effect)) | 4 (Herbicidal ratio of 70% or more and less than 90%) | 5 (Herbicidal ratio of 90% or more (almost completely withered)) | 5 (Herbicidal ratio of 90% or more (almost completely withered)) | 3 (Herbicidal ratio of 40% or more and less than 70%) | 2 (Herbicidal ratio of 20% or more and less than 40%)
9 | CC(C)c1nnc2c(C(=O)Nc3nnc(C[S+](C)[O-])o3)ccc(C(F)(F)F)n12 (centres unmarked) [1-143] | 0 (Herbicidal ratio of 5% or less (almost no effect)) | 1 (Herbicidal ratio of 5% or more and less than 20%) | 0 (Herbicidal ratio of 5% or less (almost no effect)) | 3 (Herbicidal ratio of 40% or more and less than 70%) | 2 (Herbicidal ratio of 20% or more and less than 40%) | 3 (Herbicidal ratio of 40% or more and less than 70%) | 0 (Herbicidal ratio of 5% or less (almost no effect)) | 0 (Herbicidal ratio of 5% or less (almost no effect))
10 | CCN(C)c1nnc2c(C(=O)Nc3nnco3)ccc(C(F)(F)F)n12 [1-137] | 2 (Herbicidal ratio of 20% or more and less than 40%) | 4 (Herbicidal ratio of 70% or more and less than 90%) | 0 (Herbicidal ratio of 5% or less (almost no effect)) | 5 (Herbicidal ratio of 90% or more (almost completely withered)) | 5 (Herbicidal ratio of 90% or more (almost completely withered)) | 5 (Herbicidal ratio of 90% or more (almost completely withered)) | 3 (Herbicidal ratio of 40% or more and less than 70%) | 3 (Herbicidal ratio of 40% or more and less than 70%)
